In test [1] the test system is protein concentration in the aqueous humor. In words: Protein measurement in aqueous humor. Particulars: 0.5% topical. The format is in vivo, Rabbit. The procedure: (§1) Each rabbit was placed in a restraint device and tagged with the alphanumeric code. The formulations were instilled (50 μl) into the conjunctival sac of both eyes 180, 120, 90 and 30 min before the first paracentesis; then 15, 30, 90 min after the first paracentesis. To perform the first paracentesis the animals were anaesthetized by intravenous injection of 5 mg/kg Zoletil® (Virbac; 2.5 mg/kg tiletamine HCl and 2.5 mg/kg zolazepam HCl) and one drop of local anesthetic (Novesina®, Novartis) was administered to the eye. Anterior chamber paracentesis was performed with a 26 G needle attached to a tuberculin syringe; the needle was introduced into the anterior chamber through the cornea, taking care not to damage the tissues. Two hours after the first paracentesis, the animals were sacrificed with 0.4 ml Tanax® (Intervet International B.V.) and the second paracentesis was performed. About 100 μl of aqueous humor were removed at the second paracentesis. Aqueous humor was immediately split in four aliquots and stored at −80° C. until analysis. Then both eyes were enucleated and the iris-ciliary body was carefully excised, placed in polypropylene tubes, and stored at −80° C. until analysis.
For protein concentration determination in the aqueous humor we used the Protein Quantification Kit (Fluka; Cat. No. 77371; Lot. No. 1303129). Five microliters of aqueous humor were diluted to 100 μl with water. Twenty microliters of samples and of standards were load into a 96-well plate and recorded in a plate layout. Samples were treated following the assay procedure described in the kit. A microplate reader (GDV, Italy; model DV 990 B/V6) set at 670 nm was used for making the calibration and analyzing the samples.

Test [2] relates to rabbit paracentesis model. In words: Pupillary diameter measurement, rabbit paracentesis model. The format is in vivo. Particulars: 0.5% topical, individual eye. The method, then:
as §1
The pupillary diameter of both eyes was measured with a Castroviejo caliper 180 min and 5 min before the first paracentesis and 5 min before the second paracentesis.

A further test concerns MPO. Briefly: Myeloperoxidase (MPO) activity in iris-ciliary body. Format: in vivo, Rabbit. The method, then:
2.3.2.1 Phosphate Buffer (50 mM; pH=6)
3.9 g of NaH2PO4 2H2O were dissolved in a volumetric flask to 500 ml with water. The pH was adjusted to pH=6 with 3N NaOH.
0.5 g of hexa-decyl-trimethyl-ammonium bromide was dissolved in 100 ml phosphate buffer.
The solution was prepared freshly. Ten microliters of H2O2 (30 wt. %) were diluted to 1 ml with water (solution A). 7.5 mg o-dianisidine 2HCl were dissolved in 45 ml of phosphate buffer and 75 μl of solution A were added.
as §1
The activity of MPO was measured as previously described by Williams et al. The iris-ciliary bodies were carefully dried, weighed and immersed in 1 ml of hexa-decyl-trimethyl-ammonium bromide solution. Then, the samples were sonicated for 10 sec on ice by a ultrasound homogenizer (HD 2070, Bandelin electronic), freeze-thawed three times, sonicated for 10 sec and centrifuged at 14,000 g for 10 min to remove cellular debris. An aliquot of the supernatant (40-200 μl) was diluted to 3 ml with the o-dianisidine 2HCl/H2O2 solution. The change in absorbance at 460 nm was continuously monitored for 5 min by a spectrophotometer (UV/Vis Spectrometer Lambda EZ 201; Perkin Elmer). The slope of the line (Δ/min) was determined for each sample and used to calculate the number of units of MPO in the tissue as follows:
where ε=11.3 mM^−1. Values were expressed as units of MPO/g of tissue.

The test system of test [3] is rabbit paracentesis model. Briefly: Clinical evaluation by slit lamp (clinical score), rabbit paracentesis model. The format is in vivo. On the set-up: key to Clinical Score −180 min / Clinical Score −5 min / Clinical Score +115 min: 0: normal; 1: discrete dilatation of iris and conjunctival vessels; 2: moderate dilatation of iris and conjunctival vessels; 3: intense iridal hyperemia with flare in the anterior chamber; 4: intense iridal hyperemia with flare in the anterior chamber and presence of fibrinous exudates. Conditions: 0.5% topical.

In the next test the test system is leukocytes (PMN). Briefly: Leukocytes (PMN) measurement in aqueous humor. Conditions: 0.5% topical. Format: in vivo, Rabbit. The procedure:
as §1
For the determination of the number of leukocytes we used a haemocytometer (Improved Neubauer Chamber; Brigth-line, Hausser Scientific) and a Polyvar 2 microscope (Reichert-Jung).

Another test has as its system PGE2. In words: Prostaglandin E2 (PGE2) measurement in aqueous humor. Format: in vivo, Rabbit. Conditions: 0.5% topical. The procedure:
as §1
For the quantitative determination of PGE2 in the aqueous humor we used the PGE2 Immunoassay kit (R&D Systems; Cat. No. KGE004; Lot. No. 240010). Eleven microliters or 16 μl of aqueous humor were diluted to 110 μl or 160 μl with the calibrator diluent solution provided with the kit. One hundred microliters of samples and of standards were load into a 96-well plate and recorded in a plate layout. Samples were treated following the assay procedure described in the kit. A microplate reader (GDV, Italy; model DV 990 B/V6) set at 450 nm (wavelength correction at 540 nm) was used for making the calibration and analyzing the samples.

Test [4] relates to peripheral human blood eosinophils. Briefly: Spontaneous eosinophil apoptosis (annexin V/PI flow cytometry). Particulars: 10 μM co-incubated. For orientation: In flow cytometry, cells or beads pass a laser one at a time.
Experimental: To assess glucocorticoid-induced apoptosis, cells were double-stained with annexin V-Fluos and propidium iodide (PI). Annexin V-Fluos was used according to the manufacturer's instructions.
The suspension was incubated at room temperature for 10 min and analyzed in the BD FACS Canto II flow cytometry system (Becton, Dickinson and Company, New Jersey, USA). Eosinophils and EoL-1 cells were gated on the basis of their forward and side light scatter, with cell debris excluded from analysis. Apoptotic cells were defined as annexin V^+/PI^− cells. A two-way dot plot was prepared to verify the percentage of apoptotic cells. Annexin V^−/PI^− cells were used as control and annexin V^+/PI^+ cells were considered necrotic.
All data are expressed as mean±S.E.M. for the number of experiments indicated. Statistical comparisons were made by ANOVA and post-hoc Newman-Keuls test with differences of P<0.05 considered significant.
The next test relates to EoL-1 cells. Briefly: EoL-1 cell apoptosis (annexin V/PI flow cytometry). The format is cell-based, human. Conditions: 10 μM co-incubated. The procedure:
EoL-1 cells were grown in RPMI-1640+L-glutamine medium (containing 10% FBS) and kept at 37° C. in a 5% CO2 humidified atmosphere. Before each experiment, the cells were stabilized in serum-depleted media (0.1% FBS) for 24 h before treatments.

Several values for one entry are separate records, joined by “and”; a condition that tells them apart may be missing. Identical values can stand only once.

Consider `CCOC(=O)O[C@]1(C(=O)OCCl)CC[C@H]2[C@@H]3CCC4=CC(=O)C=C[C@]4(C)[C@H]3[C@@H](O)C[C@@]21C` [LE, loteprednol etabonate, reference compound], for which the “Protein in aqueous humor at the second paracentesis, Mean” value in test [1] (group mean) is 33.905 mg/mL. The “Protein in aqueous humor at the second paracentesis” value in test [1] (individual eye sample) is 36.14 mg/mL and 39.10 mg/mL and 34.69 mg/mL and 26.10 mg/mL and 26.30 mg/mL and 28.16 mg/mL and 40.90 mg/mL and 39.85 mg/mL. In addition, the “Pupillary diameter T2: −5 min” value in test [2] (5 min before first paracentesis) was 6.0 mm (3×) and 6.5 mm (5×). Also, in test [2] (5 min before second paracentesis), the “Pupillary diameter T3: +115 min” value is 4.5 mm and 5.0 mm (2×) and 5.5 mm (2×) and 6.0 mm (3×). The “Pupillary diameter Δ(T3 − T1)” value in test [2] (+115 min minus −180 min) was −1.5 mm (2×) and −1.0 mm (3×) and 0.0 mm and −0.5 mm (2×). The “Pupillary diameter T1: −180 min” value in test [2] (basal) is 6.0 mm (3×) and 6.5 mm (5×). Further, in the test with MPO (0.5% topical, p<0.001), the “MPO activity in iris-ciliary body, statistical comparison with CTR” value is reported as “statistical significance”. Further, in the test with MPO (0.5% treatment, group mean, after the second paracentesis), the “Mean MPO Unit/g (MPO activity in iris-ciliary body samples)” value turned out to be 0.661 Unit/g. Moreover, the “MPO Unit/g (raw data of MPO activity in iris-ciliary body samples)” value in the test on MPO (0.5% treatment, individual eyes (DX/SX) of rabbits, samples collected after the second paracentesis) is 0.30 Unit/g and 0.51 Unit/g and 0.81 Unit/g and 0.60 Unit/g and 0.73 Unit/g and 1.01 Unit/g. The “Clinical Score −5 min” value in test [3] (5 min before first paracentesis, individual eye, scale 0-4) amounted to 0. The “Clinical Score +115 min” value in test [3] (5 min before second paracentesis, individual eye, scale 0-4) was 2 (2×) and 1 (6×). For the same compound, the “Percentage of eyes with clinical score 1” value in test [3] (+115 min, 8 eyes) is 75%. Besides, the “Percentage of eyes with clinical score 2” value in test [3] (+115 min, 8 eyes) is on record as 25%. In addition, the “Clinical Score −180 min” value in test [3] (basal, individual eye, scale 0-4) worked out at 0. The “Clinical score, statistical comparison with CTR” value in test [3] (p<0.05) was “significant difference”. Moreover, the “Percentage of eyes with clinical score 0” value came out at 100% in test [3] (−5 min, 8 eyes) and 100% in test [3] (−180 min, 8 eyes). The “PMN in aqueous humor at the second paracentesis, Mean” value with leukocytes (PMN) (group mean) turned out to be 28.333 number/μl. The “PMN in aqueous humor at the second paracentesis” value in the test on leukocytes (PMN) (individual eye sample) is 40 number/μl (2×) and 20 number/μl (3×) and 30 number/μl. Further, in the test on PGE2 (group mean), the “PGE2 in aqueous humor at the second paracentesis, Mean” value stood at 0.672 ng/mL. In addition, the “PGE2 in aqueous humor at the second paracentesis” value with PGE2 (individual eye sample) is “^2N/D and 0.23 ng/ml and 0.68 ng/ml and 1.10 ng/ml”. Further, in the test on PGE2 (p<0.05), the “PGE2 in aqueous humor, statistical comparison with CTR” value is “statistically significant versus CTR”.
Regarding `CC#C[C@]1(O)CC[C@H]2[C@@H]3CCC4=CC(=O)CCC4=C3[C@@H](c3ccc(N(C)C)cc3)C[C@@]21C` [mifepristone, reference compound], in test [4], the “Effect on apoptosis induced by 5000 nM BOL-303242-X or dexamethasone in human eosinophils” value was “prevented apoptosis”. In addition, the “Effect on apoptosis induced by 5000 nM BOL-303242-X or dexamethasone in EoL-1 cells” value in the test with EoL-1 cells is “prevented apoptosis”.

The values are drawn from US20110104159A1, “COMPOSITIONS AND METHODS FOR TREATING, CONTROLLING, REDUCING, AMELIORATING, OR PREVENTING ALLERGY” (priority 2006, published 2011).
